Values of other authors, collected in patent US20260078132A1, “SOLID FORMS OF AN INHIBITOR OF HIF AND METHODS OF USING SAME” (ONCOSPHERIX INC., priority 2022, published 2026).

Columns and labels:
[1] = biological target: T1, p300 (Homo sapiens, UniProt Q09472)
[2] = biological target: T1, p300; remark: listed apart in the source

T1 sequence (Q09472 whole entry, species assumed): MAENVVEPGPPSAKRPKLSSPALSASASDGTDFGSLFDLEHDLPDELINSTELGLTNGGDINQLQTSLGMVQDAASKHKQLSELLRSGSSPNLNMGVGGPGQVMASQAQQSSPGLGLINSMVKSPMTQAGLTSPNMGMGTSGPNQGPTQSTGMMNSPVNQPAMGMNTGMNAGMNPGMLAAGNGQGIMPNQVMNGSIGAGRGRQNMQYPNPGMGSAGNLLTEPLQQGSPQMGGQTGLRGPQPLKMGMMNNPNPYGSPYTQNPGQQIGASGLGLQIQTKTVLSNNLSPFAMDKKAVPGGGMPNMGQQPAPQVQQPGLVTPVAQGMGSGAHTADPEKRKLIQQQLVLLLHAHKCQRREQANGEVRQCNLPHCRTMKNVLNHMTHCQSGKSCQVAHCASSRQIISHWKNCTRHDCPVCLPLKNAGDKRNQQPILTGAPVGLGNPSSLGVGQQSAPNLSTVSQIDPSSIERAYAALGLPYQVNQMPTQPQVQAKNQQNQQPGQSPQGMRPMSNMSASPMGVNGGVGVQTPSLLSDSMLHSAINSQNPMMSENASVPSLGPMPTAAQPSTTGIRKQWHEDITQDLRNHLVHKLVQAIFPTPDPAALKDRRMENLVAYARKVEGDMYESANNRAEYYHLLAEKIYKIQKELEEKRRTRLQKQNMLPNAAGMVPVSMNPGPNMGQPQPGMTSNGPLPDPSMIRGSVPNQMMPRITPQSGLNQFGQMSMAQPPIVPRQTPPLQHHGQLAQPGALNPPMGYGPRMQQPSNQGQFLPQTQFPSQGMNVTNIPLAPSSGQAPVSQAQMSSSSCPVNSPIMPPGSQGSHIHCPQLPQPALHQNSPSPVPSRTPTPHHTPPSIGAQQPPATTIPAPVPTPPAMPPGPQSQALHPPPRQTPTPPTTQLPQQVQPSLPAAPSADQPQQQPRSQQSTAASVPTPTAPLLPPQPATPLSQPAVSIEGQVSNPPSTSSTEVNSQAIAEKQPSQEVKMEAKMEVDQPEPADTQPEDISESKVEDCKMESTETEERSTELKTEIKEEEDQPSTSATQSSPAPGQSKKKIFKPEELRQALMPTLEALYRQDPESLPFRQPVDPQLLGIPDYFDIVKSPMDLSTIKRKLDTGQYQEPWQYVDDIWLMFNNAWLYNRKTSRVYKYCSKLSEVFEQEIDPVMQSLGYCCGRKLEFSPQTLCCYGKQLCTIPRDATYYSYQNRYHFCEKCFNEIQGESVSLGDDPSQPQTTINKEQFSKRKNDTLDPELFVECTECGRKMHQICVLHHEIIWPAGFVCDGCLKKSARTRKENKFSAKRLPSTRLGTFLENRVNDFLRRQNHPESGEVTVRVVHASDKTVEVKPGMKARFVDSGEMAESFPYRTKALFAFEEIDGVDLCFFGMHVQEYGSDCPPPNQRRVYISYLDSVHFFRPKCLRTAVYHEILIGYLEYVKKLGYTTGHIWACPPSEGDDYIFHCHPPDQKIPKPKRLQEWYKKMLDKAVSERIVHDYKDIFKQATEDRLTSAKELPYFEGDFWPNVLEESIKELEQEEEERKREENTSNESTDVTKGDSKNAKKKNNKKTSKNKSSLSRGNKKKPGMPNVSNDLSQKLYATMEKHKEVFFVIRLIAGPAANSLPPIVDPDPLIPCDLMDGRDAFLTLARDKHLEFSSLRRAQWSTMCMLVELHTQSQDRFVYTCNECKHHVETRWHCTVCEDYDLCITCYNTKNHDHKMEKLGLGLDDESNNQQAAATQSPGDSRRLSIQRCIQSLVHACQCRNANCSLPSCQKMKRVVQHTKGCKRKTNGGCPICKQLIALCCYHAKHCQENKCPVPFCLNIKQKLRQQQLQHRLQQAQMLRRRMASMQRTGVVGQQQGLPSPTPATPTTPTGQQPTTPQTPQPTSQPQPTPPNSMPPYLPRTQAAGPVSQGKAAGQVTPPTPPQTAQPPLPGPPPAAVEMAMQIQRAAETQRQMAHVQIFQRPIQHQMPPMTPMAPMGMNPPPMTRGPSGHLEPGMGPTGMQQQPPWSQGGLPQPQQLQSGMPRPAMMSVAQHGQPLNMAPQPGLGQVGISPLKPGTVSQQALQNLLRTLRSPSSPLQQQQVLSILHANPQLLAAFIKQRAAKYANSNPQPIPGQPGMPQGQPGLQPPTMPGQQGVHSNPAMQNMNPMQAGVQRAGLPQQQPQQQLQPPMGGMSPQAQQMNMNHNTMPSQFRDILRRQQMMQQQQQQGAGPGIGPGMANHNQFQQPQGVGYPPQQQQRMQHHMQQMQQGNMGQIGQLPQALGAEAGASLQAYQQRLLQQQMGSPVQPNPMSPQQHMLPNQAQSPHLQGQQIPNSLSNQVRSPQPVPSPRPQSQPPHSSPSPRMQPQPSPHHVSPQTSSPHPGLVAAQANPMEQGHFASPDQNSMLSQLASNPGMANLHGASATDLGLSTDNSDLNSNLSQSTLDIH

pull-down of p300 [1]: pull-down of p300 by Compound 9
binding to p300 [2]: binding of Compound 9 to p300
SMILES: COc1ccc(S(=O)(=O)N(Cc2ccc3c(n2)C=CC(C)(C)O3)C2CCC2)cc1OC [Compound 9, N-Cyclobutyl-N-((2,2-dimethyl-2H-pyrano[3,2-b]pyridin-6-yl)methyl)-3,4-dimethoxybenzenesulfonamide]
